The results in this text go back to patent US20210355107A1, “MULTI-SUBSTITUTED PYRIDONE DERIVATIVES AND MEDICAL USE THEREOF” (Beijing Yuezhikangtai Biomedicines Co., Ltd., priority 2018, published 2021).

Molecules are shown by their SMILES.

Data set [1] relates to human non-small cell lung cancer tumor cell strain EBC-1. Description: In vivo anti-tumor activity in model mice with ectopically grafted EBC-1 tumor cells. Conditions: EBC-1 subcutaneous tumors in BALB/c-nude mice; 30 mg/kg intragastric once daily for 28 days; FIG. 1. As for the experimental part:
(§1) Test Example 5: In Vivo Anti-Tumor Activity of Compounds disclosed herein in Model Mice with Ectopically Grafted Tumor Cells
(§2) 3×10^6 cells of human non-small cell lung cancer tumor cell strain EBC-1 (ATCC) were inoculated subcutaneously into BALB/c-nude model mice (Beijing AniKeeper Biotech, 10 female mice). When the subcutaneous tumors in mice each grew to 175.5 mm^3, the mice were administered intragastrically with test samples.
The mice were divided into a negative control group and an example compound group (compound of Example 3) (30 mg/kg) with 5 mice per group. The mice in the negative control group were administered with 10% solutol HS-15, which was prepared by adding 10 mL of solutol HS-15 to 90 mL of ddH2O and then mixing well by vortexing. […]
After the start of the administration, the body weight and tumor size of each mice were measured twice a week. […]
The anti-tumor efficacy was evaluated based on the growth curve of the tumor (i.e., tumor volume per measurement versus its treatment days) and relative tumor volume during treatment. The relative tumor inhibition (TGI) was calculated according to the following formula: […]
Relative tumor volume RTV was calculated as follows: RTV=[…], where V0 is the tumor volume of the animal at the time of grouping, and Vt is the tumor volume of the animal after treatment.

Data set [2] can be described thus: Body weight of EBC-1 tumor-bearing mice during treatment. It is filed as in vivo. Conditions: EBC-1 BALB/c-nude mice; 30 mg/kg intragastric once daily for 28 days; FIG. 2. As for the experimental part: as §1, §2
The mice were divided into a negative control group and an example compound group (compound of Example 3) (30 mg/kg) with 5 mice per group. The mice in the negative control group were administered with 10% solutol HS-15, which was prepared by adding 10 mL of solutol HS-15 to 90 mL of ddH2O and then mixing well by vortexing. The mice in the example compound group were administered with a compound solution at a concentration of […] which was prepared by dissolving the compound of Example 3 in 10% solutol HS-15. The mice in both the solvent control group and the example compound group were subjected to intragastric administration once daily for 28 days at a dosage of 10 μL per gram of body weight.
After the start of the administration, the body weight and tumor size of each mice were measured twice a week. The calculation formula for tumor size is as follows: […]

As to `CCn1cc(-c2cnc(N)c(-c3ccc(NC(=O)c4cn(C(C)C)c(C#N)c(-c5ccc(F)cc5)c4=O)cc3F)c2)cn1` [Example 3, N-(4-(2-amino-5-(1-ethyl-1H-pyrazol-4-yl)pyridin-3-yl)-3-fluoro-phenyl)-6-cyano-5-(4-fluorophenyl)-1-isopropyl-4-oxo-1,4-dihydropyridine-3-carboxamide], the “tumor growth inhibition (TGI)” value in data set [1] is recorded as “up to 108%”. In addition, the “body weight change of tumor-bearing mice” value in data set [2] is listed as “does not change significantly”.
